Test results from PMC4503722, “Novel Phenotypic Outcomes Identified for a Public Collection of Approved Drugs from a Publicly Accessible Panel of Assays” (PLoS ONE, 2015).
Read-outs that look alike come from different tables or passages of the source.

How the values were obtained:
DLD-1 = experiment: cells; format: cell-based
HT-29 = experiment: cells; format: cell-based
SNU-C1 = experiment: cells; format: cell-based
SW480 = experiment: cells; format: cell-based
RKO = experiment: cells; format: cell-based
HCT116 = experiment: cells; format: cell-based
Colo320 = experiment: cells; format: cell-based
[1] = test system: ECFC/ADSC co-culture cell nuclei number
[2] = test system: endothelial tube formation in co-cultures of ECFCs and ADSCs treated with VEGF; experiment: cells; format: cell-based, human
HeLa cells = experiment: cells; format: cell-based

OC[C@@H](O)[C@H](O)[C@H](O)[C@@H](O)CO [NCGC00166072-02]
Basal_Viability ATP DLD-1 IC50/EC50 (DLD-1; assay number 23, basal): > 20 µM | Basal_Viability ATP HT-29 IC50/EC50 (HT-29; assay number 28, basal): > 20 µM | Basal_Viability ATP SNU-C1 IC50/EC50 (SNU-C1; assay number 30, basal): > 20 µM | Basal_Viability ATP SW480 IC50/EC50 (SW480; assay number 24, basal): > 20 µM | Basal_Viability ATP RKO IC50/EC50 (RKO; assay number 29, basal): > 20 µM | Basal_Viability ATP HCT116 IC50/EC50 (HCT116; assay number 25, basal): > 20 µM | Basal_Viability ATP Colo 320 IC50/EC50 (Colo320; assay number 27, basal): > 20 µM

O.O=C1[O][Bi][O]c2ccccc21 [NCGC00166299-03]
Basal_Viability ATP DLD-1 IC50/EC50 (DLD-1; assay number 23, basal): > 20 µM | Basal_Viability ATP HT-29 IC50/EC50 (HT-29; assay number 28, basal): > 20 µM | Basal_Viability ATP SNU-C1 IC50/EC50 (SNU-C1; assay number 30, basal): 15.3838 µM | Basal_Viability ATP SW480 IC50/EC50 (SW480; assay number 24, basal): > 20 µM | Basal_Viability ATP RKO IC50/EC50 (RKO; assay number 29, basal): > 20 µM | Basal_Viability ATP HCT116 IC50/EC50 (HCT116; assay number 25, basal): > 20 µM | Basal_Viability ATP Colo 320 IC50/EC50 (Colo320; assay number 27, basal): > 20 µM

Cc1cc(C(C#N)c2ccc(Cl)cc2)c(Cl)cc1NC(=O)c1cc(I)cc(I)c1O (stereo not shown) [NCGC00166312-02]
Basal_Viability ATP DLD-1 IC50/EC50 (DLD-1): 0.069 µM | Basal_Viability ATP HT-29 IC50/EC50 (HT-29): 0.1255 µM | Basal_Viability ATP SNU-C1 IC50/EC50 (SNU-C1): 0.0438 µM | Basal_Viability ATP SW480 IC50/EC50 (SW480): 0.046 µM | Basal_Viability ATP RKO IC50/EC50 (RKO): 0.1971 µM | VEGF_ADSC\ECFC Angio Hoechst NucArea IC50/EC50 [1]: 7.36 µM | Basal_Viability ATP HCT116 IC50/EC50 (HCT116): 0.09775 µM | VEGF_ADSC\ECFC Angio CD31 TubeArea IC50/EC50 [2]: > 10 µM | Basal_Viability ATP Colo 320 IC50/EC50 (Colo320): 0.116 µM

CC(C)(C)CC(C)(C)c1cc(Cc2cc(C(C)(C)CC(C)(C)C)cc(-n3nc4ccccc4n3)c2O)c(O)c(-n2nc3ccccc3n2)c1 [NCGC00167544-02]
Basal_Viability ATP DLD-1 IC50/EC50 (DLD-1; assay number 23, basal): > 20 µM | Basal_Viability ATP HT-29 IC50/EC50 (HT-29; assay number 28, basal): > 20 µM | Basal_Viability ATP SNU-C1 IC50/EC50 (SNU-C1; assay number 30, basal): > 20 µM | Basal_Viability ATP SW480 IC50/EC50 (SW480; assay number 24, basal): > 20 µM | Basal_Viability ATP RKO IC50/EC50 (RKO; assay number 29, basal): > 20 µM | Basal_Viability ATP HCT116 IC50/EC50 (HCT116; assay number 25, basal): > 20 µM | Basal_Viability ATP Colo 320 IC50/EC50 (Colo320; assay number 27, basal): > 20 µM

CC(C)=CC1C(C(=O)OCN2C(=O)C3=C(CCCC3)C2=O)C1(C)C (stereo not shown) [NCGC00168352-02]
IC50/EC50, Basal_Viability ATP DLD-1 (assay number 23) (DLD-1; basal): > 20 µM | IC50/EC50, Basal_Viability ATP HT-29 (assay number 28) (HT-29; basal): > 20 µM | IC50/EC50, Basal_Viability ATP SNU-C1 (assay number 30) (SNU-C1; basal): > 20 µM | IC50/EC50, Basal_Viability ATP SW480 (assay number 24) (SW480; basal): > 20 µM | IC50/EC50, Basal_Viability ATP RKO (assay number 29) (RKO; basal): > 20 µM | IC50/EC50, Basal_Viability ATP HCT116 (assay number 25) (HCT116; basal): > 20 µM | IC50/EC50, Basal_Viability ATP Colo 320 (assay number 27) (Colo320; basal): > 20 µM

NCCCC[C@H](N[C@@H](CCc1ccccc1)C(=O)O)C(=O)N1CCC[C@H]1C(=O)O [NCGC00179623-04]
Basal_Viability ATP DLD-1 IC50/EC50 (DLD-1; assay number 23, basal): 2.2356 µM | Basal_Viability ATP HT-29 IC50/EC50 (HT-29; assay number 28, basal): > 6.667 µM | Basal_Viability ATP SNU-C1 IC50/EC50 (SNU-C1; assay number 30, basal): 2.5347 µM | Basal_Viability ATP SW480 IC50/EC50 (SW480; assay number 24, basal): 4.028 µM | Basal_Viability ATP RKO IC50/EC50 (RKO; assay number 29, basal): 8.8772 µM | Hela CellCycMod PI 2N IC50/EC50 (HeLa cells; assay number 14, 2N): > 10 µM | Hela CellCycMod PI S Phase IC50/EC50 (HeLa cells; assay number 15, S phase): > 10 µM | Hela CellCycMod PI 4N IC50/EC50 (HeLa cells; assay number 16, 4N): > 10 µM | Hela CellCycMod PI MI IC50/EC50 (HeLa cells; assay number 17, MI): > 10 µM | Hela CellCycMod PI Cell Number IC50/EC50 (HeLa cells; assay number 18, cell number): > 10 µM | Basal_Viability ATP HCT116 IC50/EC50 (HCT116; assay number 25, basal): 3.3925 µM | Basal_Viability ATP Colo 320 IC50/EC50 (Colo320; assay number 27, basal): > 20 µM

Cc1cccc(Cc2cnc[nH]2)c1C.Cl [NCGC00182057-03]
IC50/EC50, Basal_Viability ATP DLD-1 (assay number 23) (DLD-1; basal): > 20 µM | IC50/EC50, Basal_Viability ATP HT-29 (assay number 28) (HT-29; basal): > 20 µM | IC50/EC50, Basal_Viability ATP SNU-C1 (assay number 30) (SNU-C1; basal): > 20 µM | IC50/EC50, Basal_Viability ATP SW480 (assay number 24) (SW480; basal): > 20 µM | IC50/EC50, Basal_Viability ATP RKO (assay number 29) (RKO; basal): > 20 µM | IC50/EC50, Basal_Viability ATP HCT116 (assay number 25) (HCT116; basal): > 20 µM | IC50/EC50, Basal_Viability ATP Colo 320 (assay number 27) (Colo320; basal): > 20 µM

CCOC(=O)Oc1ccc(CCNC(=O)[C@H](CCSC)NC(C)=O)cc1OC(=O)OCC [NCGC00249931-01]
Basal_Viability ATP DLD-1 IC50/EC50 (DLD-1; assay number 23): > 20 µM | Basal_Viability ATP HT-29 IC50/EC50 (HT-29; assay number 28): > 20 µM | Basal_Viability ATP SNU-C1 IC50/EC50 (SNU-C1; assay number 30): > 20 µM | Basal_Viability ATP SW480 IC50/EC50 (SW480; assay number 24): > 20 µM | Basal_Viability ATP RKO IC50/EC50 (RKO; assay number 29): > 20 µM | Basal_Viability ATP HCT116 IC50/EC50 (HCT116; assay number 25, basal): > 20 µM | Basal_Viability ATP Colo 320 IC50/EC50 (Colo320; assay number 27): > 20 µM

O=c1c(C2CC(c3ccc(-c4ccc(Br)cc4)cc3)Cc3ccccc32)c(O)sc2ccccc12 (stereo not shown) [NCGC00262959-01]
Basal_Viability ATP DLD-1 IC50/EC50 (DLD-1; assay number 23): 0.239 µM | Basal_Viability ATP HT-29 IC50/EC50 (HT-29; assay number 28): 0.4364 µM | Basal_Viability ATP SNU-C1 IC50/EC50 (SNU-C1; assay number 30): 0.2516 µM | Basal_Viability ATP SW480 IC50/EC50 (SW480; assay number 24): 0.187 µM | Basal_Viability ATP RKO IC50/EC50 (RKO; assay number 29): 0.5378 µM | Basal_Viability ATP HCT116 IC50/EC50 (HCT116; assay number 25, basal): 0.4855 µM | Basal_Viability ATP Colo 320 IC50/EC50 (Colo320; assay number 27): 0.7354 µM
